Patent publication US11242337B2, “Compounds useful for treating gastrointestinal tract disorders” (Ardelyx, Inc., priority 2017, dated 2022)
Where two headings read alike, the source gives them in different places.

Tests used:
gastrointestinal transit = experiment: Restoration of gastrointestinal motility in opioid induced constipation (loperamide); format: in vivo, mice; conditions: loperamide s.c., Evans Blue small intestinal transit 30 minutes
Method: Approximately eight-week old, female, CD1 […] are purchased from Envigo (Livermore, Calif.), are housed 4 per cage and acclimated for at least 48 hours before study initiation. Animals are fed standard laboratory rodent chow Harlan Teklad Global 2018 (Madison, Wis.). Animals have ad libitum access to food and water for the duration of the acclimation period and are maintained in a temperature and humidity controlled room on a standard light/dark cycle of 6 AM to 6 PM. Following an overnight fast, with free access to water, animals are dosed by oral gavage with varying doses of test compound or vehicle (3 mM HCl, 0.01% Tween80), at a dose volume of 5 mL/kg. […] For an individual animal, the length travels by the Evans Blue dye front is divided by the length of the whole small intestine, measured from the pylorus to the cecum, and multiplied by 100, to provide the distance of the small intestine travelled by the dye as a percentage.

[1] = system: absorption of sodium from the intestinal lumen; experiment: Inhibition of intestinal sodium absorption in rats; format: in vivo, Sprague Dawley rats; conditions: 13-hours post-dose; for response vs control in vivo at 0.03 mg/kg / response vs control in vivo at 0.1 mg/kg / response vs control in vivo at 0.3 mg/kg: Rattus norvegicus, Sprague Dawley rats, read-out: Urinary Na (% of Vehicle, out/in); for response vs control in vivo at 0.03 mg/kg: oral gavage 0.03 mg/kg; for response vs control in vivo at 0.1 mg/kg: oral gavage 0.1 mg/kg; for response vs control in vivo at 0.3 mg/kg: oral gavage 0.3 mg/kg; for FFS (1-5): rats, group median fecal form score, 1 normal pellet to 5 liquid fecal streams
Method: Urinary sodium excretion and fecal form were measured to assess the ability of selected example compounds to inhibit the absorption of sodium from the intestinal lumen. Eight-week old, male, Sprague Dawley rats were purchased from Envigo (Livermore, Calif.), were housed 2 per cage and acclimated for at least 48 hours before study initiation. Animals were fed. Harlan Teklad Global TD.160470 rodent chow (Madison, Wis.), standard laboratory rodent chow Harlan Teklad Global 2018 with the addition of 0.4% inorganic phosphorous. Animals had ad libitum access to food and water for the duration of the study and were maintained in a temperature and humidity controlled room on a standard light/dark cycle of 6 AM to 6 PM. On the day of study initiation, rats (n=5/group) were dosed by oral gavage with test compound or vehicle (3 mM HCl, 0.01% Tween80) at a dose volume of […]. Immediately after dose administration animals were placed in individual metabolic cages. At 13-hours post-dose, urine samples were collected and fecal form was assessed. In addition, the weight of food consumed over the 13-hour period was measured and recorded. Fecal forms were scored according to a common scale associated with increasing fecal water to the wettest observation in the cage's collection funnel (1, normal pellet; 2, pellet adhering to sides of collection funnel due to moisture; 3, loss of normal pellet shape; 4, complete loss of shape with a blotting pattern; 5, liquid fecal streams evident). Fecal form score (FFS) was calculated for each group as the median of each individual rat's FFS within the group and reported in Table 7. Fecal samples were dried using a lyophilizer for at least 3 days, following which dry weight was recorded and fecal fluid content was calculated based on the difference between the wet and dry stool weights. Fecal fluid content was calculated as a change from the vehicle group mean. For urine samples, the volumes were determined gravimetrically. Urine samples were analyzed on an ion chromatography system (Thermo Fisher ICS-3000 or ICS-5000+) coupled with conductivity detectors. Chromatographic separation of cations was performed using an IonPac CS12A (Thermo Fisher) 2×250 mm analytical column with an isocratic elution using 25 mM methanesulfonic acid. Concentrations were interpolated from a standard curve (prepared in 10 mM HCl) for sodium based on retention time and peak area. Thirteen-s-hour urinary sodium excretion (mg/13-hours) was calculated by multiplying urinary sodium concentration by 13-hour urine volume. The urinary sodium excretion of compound treatment was normalized to dietary sodium intake and expressed as a percentage of the vehicle mean.

[2] = system: human duodenum monolayer culture; experiment: Increased trans-epithelial resistance (TEER) in human organoid monolayer cell cultures; format: cell-based; conditions: 1 μM apical, baseline corrected
Method: Basal media (B consisted of advanced DMEM/F12 containing 10 mM HEPES (Invitrogen, 15630-080), 1:100 Glutamax (Invitrogen, 35050-061), and 1:100 penicillin/streptomycin (Invitrogen, 15140-122). Supplemented basal media (SBM) contained 1:100 N2 (Invitrogen, 17502-048), 1:50 B27 (Invitrogen, 12587-010), 1 mM N-acetylcysteine (Sigma, A9165), and 10 nM [Leu15]-gastrin I (Sigma, G9145). Growth factors used included 50 ng per mL mouse EGF (Peprotech, 315-09), 100 ng per mL mouse noggin (Peprotech, 250-38), 500 ng per mL human R-spondin 1 (R&D, 4645-RS), 100 ng per mL mouse Wnt-3a (R&D, 1324-WN), 20 μM Y-27632 (Tocris, 1254), 10 mM nicotinamide (Sigma, N0636), 500 nM A83-01 (Tocris, 2939), 10 μM SB202190 (Tocris, 1264). Transwells were 0.4 μm pore polyester membrane 24-well Transwell inserts (Corning). Cultures were incubated at 37° C. in 5% CO2.
Human duodenum organoids were cultured in WENRNAS (Wnt, EGF, noggin, R-spondin1, Nicotinamide, A83-01, SB202190) and typically grown for 7-12 days before being used to plate monolayer cultures. On day 0, organoid cultures embedded in Matrigel were treated with TrypLE Express to break organoids into small pieces and/or single cells. The cells were resuspended to 0.5×10^6 cells/mL in SBM containing WENRAY (Wnt, EGF, noggin, R-spondin1, A83-01, Y-27632). Following this step, 200 μL of cell suspension was plated into the apical side of a 24-well Transwell (100,000 cells/well) and 600 μL of SBM with WENRAY was added to the basolateral side. Duodenum cells were differentiated with ENA (EGF, noggin, A83-01) on day 3. The color of apical compartment turns from pink or orange to yellow due to the increase in NHE3 expression after differentiation.
Each human duodenum monolayer culture well was washed twice with fresh SBM on the apical side on day 6 or day 7 before dosing. All compound stocks were 10 mM dissolved DMSO. Each compound stock was individually mixed with fresh SBM to reach final compound concentration 1 μM and dosed only on the apical side of the monolayer (total volume 200 μl). DMSO at the equivalent concentration was used as the vehicle control. Duplicate wells were dosed for each compound. Transepithelial electrical resistance (TEER) was used as a quantitative technique to measure of tight junction permeability. TEER values were recorded (MERS00002, Millipore) before dosing and 30 mins and 1 hr after dosing for all wells. Each of the duplicate TEER values following treatment were corrected for the individual well baseline TEER. Baseline corrected TEER for each example compound was compared to the average of the DMSO wells and expressed as a percent TEER of vehicle control.

[3] = 1 hr after dosing, read-out: TEER at 60 minutes (% of Vehicle)
[4] = 0.5 h, 30 mins after dosing, read-out: TEER at 30 minutes (% of Vehicle)

| Compound | % Restoration of Transit (gastrointestinal transit; oral gavage 15 mg/kg) | response vs control in vivo at 0.03 mg/kg [1] | response vs control in vivo at 0.1 mg/kg [1] | response vs control in vivo at 0.3 mg/kg [1] | FFS (1-5) ([1]; 0.03 mg/kg) | FFS (1-5) ([1]; 0.1 mg/kg) | FFS (1-5) ([1]; 0.3 mg/kg) | activity at 1 µM [2, 3] | activity at 1 µM [2, 4] | % Restoration of Transit (gastrointestinal transit; oral gavage 1.5 mg/kg) | % Restoration of Transit (gastrointestinal transit; oral gavage 5 mg/kg) |
| --- | --- | --- | --- | --- | --- | --- | --- | --- | --- | --- | --- |
| C[C@@H]1CN([C@H]2Cc3c(C#N)cc(Cl)cc3[C@@H]2Oc2ccc(S(=O)(=O)N[C@H]3CCN(CCOCCNC(=O)NCCCCNC(=O)NCCOCCN4CC[C@H](NS(=O)(=O)c5ccc(O[C@H]6c7cc(Cl)cc(C#N)c7C[C@@H]6N6CCN[C@H](C)C6)cc5)C4)C3)cc2)CCN1 [Example 132, 4-([(1S,2S)-6-Chloro-4-cyano-2-[(R)-3-methylpiperazin-1-yl]-2,3-dihydro-1H-inden-1-yl]oxy)-N—[(S)-1-(20-[(S)-3-([4-([(1S,2S)-6-chloro-4-cyano-2-[(R)-3-methylpiperazin-1-yl]-2,3-dihydro-1H-inden-1-yl]oxy)phenyl]sulfonamido)pyrrolidin-1-yl]-7,14-diaxo-3,18-dioxa-5,8,13,15-tetraazaicosyl)pyrrolidin-3-yl]benzenesulfonamide; bis(trifluoroacetic acid)] | C (>40%) | > 70% | 40 to 70% | < 40% | 3 | 3 | 3 |  |  |  |  |
| N#Cc1cc(Cl)cc2c1C[C@H](N1CCNCC1)[C@H]2Oc1ccc(S(=O)(=O)NC2CCN(CCOCCNC(=O)NCCCCNC(=O)NCCOCCN3CCC(NS(=O)(=O)c4ccc(O[C@H]5c6cc(Cl)cc(C#N)c6C[C@@H]5N5CCNCC5)cc4)CC3)CC2)cc1 [Example 123, 4-([(1S,2S)-6-Chloro-4-cyano-2-(piperazin-1-yl)-2,3-dihydro-1H-inden-1-yl]oxy)-N-[1-(20-[4-([4-([(1S,2S)-6-chloro-4-cyano-2-(piperazin-1-yl)-2,3-dihydro-1H-inden-1-yl]oxy)phenyl]sulfonamide]piperidin-1-yl)-7,14-dioxo-3,18-dioxa-6,8,13,15-tetraazaicosyl]piperidin-4-yl)benzenesulfonamide] | A (<20%) | > 70% | 40 to 70% | < 40% | 3 | 3 | 3 |  |  |  |  |
| N#Cc1cc(Cl)cc2c1C[C@H](N1CCNCC1)[C@H]2Oc1ccc(S(=O)(=O)NCCOCCOCCNC(=O)NCCCCNC(=O)NCCOCCOCCNS(=O)(=O)c2ccc(O[C@H]3c4cc(Cl)cc(C#N)c4C[C@@H]3N3CCNCC3)c(F)c2)cc1F [Example 43, 3-[2-(2-[2-[(4-[[(1S,2S)-6-Chloro-4-cyano-2-(piperazin-1-yl)-2,3-dihydro-1H-inden-1-yl]oxy]-3-fluorobenzene)sulfonamido]ethoxy]ethoxy)ethyl]-1-[4-([[2-(2-[2-[(4-[[(1S,2S)-6-chloro-4-cyano-2-(piperazin-1-yl)-2,3-dihydro-1H-inden-1-yl]oxy]-3-fluorobenzene)sulfonamido]ethoxy]ethoxy)ethyl]carbamoyl]amino)butyl]urea; bis(trifluoroacetic acid)] | A (<20%) |  |  |  |  |  |  | 100 to 130% | 100 to 130% | B (20-40%) | A (<20%) |
| N#Cc1cc(Cl)cc2c1C[C@H](N1CCNCC1)[C@H]2Oc1ccc(S(=O)(=O)N[C@H]2CCN(CCOCCNC(=O)NCCCCNC(=O)NCCOCCN3CC[C@H](NS(=O)(=O)c4ccc(O[C@H]5c6cc(Cl)cc(C#N)c6C[C@@H]5N5CCNCC5)cc4)C3)C2)cc1 [Example 107, 4-([(1S,2S)-6-Chloro-4-cyano-2-(piperazin-1-yl)-2,3-dihydro-1H-inden-1-yl]oxy)-N—[(S)-1-(20-[(S)-3-([4-([(1S,2S)-6-chloro-4-cyano-2-(piperazin-1-yl)-2,3-dihydro-1H-inden-1-yl]oxy)phenyl]sulfonamido)pyrrolidin-1-yl]-7,14-dioxo-3,18-dioxa-6,8,13,15-tetraazaicosyl)pyrrolidin-3-yl]benzenesulfonamide; tetra(trifluoroacetate)] |  | 40 to 70% | 40 to 70% | < 40% | 3 | 3 | 3 | 100 to 130% | > 130% |  |  |
| Cc1cc(S(=O)(=O)N[C@H]2CCN(CCOCCNC(=O)NCCCCNC(=O)NCCOCCN3CC[C@H](NS(=O)(=O)c4ccc(O[C@H]5c6cc(Cl)cc(Cl)c6C[C@@H]5N(C)C)c(C)c4)C3=O)C2=O)ccc1O[C@H]1c2cc(Cl)cc(Cl)c2C[C@@H]1N(C)C [Example 91, 1-(2-[2-[(3S)-3-[(4-[[(1S,2S)-4,6-Dichloro-2-(dimethylamino)-2,3-dihydro-1H-inden-1-yl]oxy]-3-methylbenzene)sulfonamido]-2-oxopyrrolidin-1-yl]ethoxy]ethyl)-3-(4-[[(2-[2-[(3S)-3-[(4-[[(1S,2S)-4,6-dichloro-2-(dimethylamino)-2,3-dihydro-1H-inden-1-yl]oxy]-3-methylbenzene)sulfonamido]-2-oxopyrrolidin-1-yl]ethoxy]ethyl)carbamoyl]amino]butyl)urea] |  |  |  |  |  |  |  | 100 to 130% | 100 to 130% |  |  |
